Assay results taken from patent US8642594B2, “Substituted thieno[2,3-d]pyrimidines as HSP90 inhibitors” (Vernalis (R&D) Limited, priority 2003, dated 2014).

Tested on: not listed separately
Experiment: Sulforhodamine B (SRB) growth inhibition / growth arrest assay
Type: cell-based
Details: activity range
Procedure: A growth inhibition assay was also employed for the evaluation of candidate HSP90 inhibitors:
Assessment of Cytotoxicity by Sulforhodamine B (SRB) Assay: Calculation of 50% Inhibitory Concentration (IC50).
Day 1 • 1) Determine cell number by haemocytometer. • 2) Using an 8 channel multipipettor, add 160 μl of the cell suspension (3600 cells/well or 2×10^4 cells/ml) to each well of a 96-well microtitre plate. • 3) Incubate overnight at 37° C. in a CO2 incubator. Day 2 • 4) Stock solutions of drugs are prepared, and serial dilutions of each drug are performed in medium to give final concentrations in wells. • 5) Using a multipipettor, 40 μl of drug (at 5× final concentration) is added to quadruplicate wells. • 6) Control wells are at either side of the 96 well plates, where 40 μl of medium is added. • 7) Incubate plates in CO2 incubator for 4 days […]. […] Leave for 15 mins. • 12) Wash off unbound SRB stain with four washes of 1% acetic acid. • 13) Dry plates in incubator. • 14) Solubilise SRB using 100 μl of 10 mM Tris base and put plates on plate shaker for 5 mins. • 15) Determine absorbance at 540 nm using a plate reader. Calculate mean absorbance for quadruplicate wells and express as a percentage of value for control, untreated wells. • 16) Plot % absorbance values versus log drug concentration and determine the IC50.

| SMILES | IC50 [µM] |
| --- | --- |
| CCOC(=O)c1cc2c(-c3ccc(C(F)(F)F)cc3)nc(N)nc2s1 [Example 2, 2-Amino-4-(4-trifluoromethyl-phenyl)-thieno[2,3-d]pyrimidine-6-carboxylic acid ethyl ester] | < 50 |

Target: T1, Human full-length Hsp90 (Homo sapiens, UniProt P08238)
T1 construct: E. coli expressed human full-length HSP90 protein, purified >95%; made in house; host or cells: E. coli
T1 sequence (P08238 whole entry): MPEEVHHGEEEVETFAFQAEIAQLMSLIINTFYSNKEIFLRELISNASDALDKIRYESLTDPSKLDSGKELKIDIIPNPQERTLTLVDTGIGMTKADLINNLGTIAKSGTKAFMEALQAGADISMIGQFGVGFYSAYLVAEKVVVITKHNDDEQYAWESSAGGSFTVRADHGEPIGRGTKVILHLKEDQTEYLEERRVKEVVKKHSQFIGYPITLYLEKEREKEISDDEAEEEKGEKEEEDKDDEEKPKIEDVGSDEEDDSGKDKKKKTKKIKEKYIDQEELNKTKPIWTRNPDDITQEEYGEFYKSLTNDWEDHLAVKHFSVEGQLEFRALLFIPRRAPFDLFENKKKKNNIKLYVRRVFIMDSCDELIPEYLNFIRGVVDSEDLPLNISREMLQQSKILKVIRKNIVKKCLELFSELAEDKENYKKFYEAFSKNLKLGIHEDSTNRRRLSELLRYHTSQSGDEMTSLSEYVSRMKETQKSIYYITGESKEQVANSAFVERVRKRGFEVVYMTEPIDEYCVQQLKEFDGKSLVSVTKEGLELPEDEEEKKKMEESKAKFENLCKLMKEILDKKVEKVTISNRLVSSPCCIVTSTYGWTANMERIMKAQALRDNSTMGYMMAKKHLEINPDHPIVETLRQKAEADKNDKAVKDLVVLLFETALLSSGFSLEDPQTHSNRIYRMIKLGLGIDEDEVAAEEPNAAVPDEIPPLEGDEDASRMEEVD
Experiment: Fluorescence polarization assay (competitive binding to HSP90, probe RBT0045864-FAM)
Details: not given
Method in brief: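 Competitive fluorescence polarization: test compound displaces FAM-labelled probe RBT0045864-FAM (200 nM working solution) from HSP90 after equilibration, and anisotropy change is measured. Compounds serially diluted; BSA-containing buffer; standard compound as positive control; Z′ from zero and positive controls.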

| SMILES | IC50 [µM] |
| --- | --- |
| CCNC(=O)c1cc2c(-c3ccc(Cl)cc3)nc(N)nc2s1 [Example 173] | < 10 |

Same assay, conditions: fluorescence polarization assay, activity range; read-out: Hsp90 FP IC50

| SMILES | IC50 [µM] |
| --- | --- |
| CCOC(=O)c1cc2c(-c3ccc(C(F)(F)F)cc3)nc(N)nc2s1 [Example 2, 2-Amino-4-(4-trifluoromethyl-phenyl)-thieno[2,3-d]pyrimidine-6-carboxylic acid ethyl ester] | > 10 |
| CNC(=O)c1cc2c(NCc3ccccc3)nc(N)nc2s1 [Example 65] | > 10 |
| CCOC(=O)c1cc2c(-c3ccc(CN4CCOCC4)cc3)nc(N)nc2s1 [Example 41] | > 10 |
| COC(=O)c1cc2c(NCc3ccccc3)nc(N)nc2s1 [Example 22, 2-Amino-4-benzylamino-thieno[2,3-d]pyrimidine-6-carboxylic acid methyl ester] | > 10 |
| Cc1ccc(-c2nc(N)nc3sc(C(=O)Nc4ccccc4)cc23)c(C)c1 [Example 91] | < 10 |
| CCN(CC)CCCNC(=O)c1cc2c(-c3ccccc3)nc(N)nc2s1 [Example 58] | > 10 |
| CCOC(=O)c1cc2c(NC(C)(C)c3ccccc3)nc(N)nc2s1 [Example 29] | > 10 |
| CCOC(=O)c1cc2c(-c3cccc(C)c3C)nc(N)nc2s1 [Example 87] | < 10 |
| CCOC(=O)c1cc2c(-c3ccccc3Br)nc(N)nc2s1 [Example 97] | < 10 |
| COC(=O)c1cc2c(N(C)Cc3ccccc3)nc(N)nc2s1 [Example 23] | > 10 |
| CCOC(=O)c1cc2c(-c3ccccc3CC)nc(N)nc2s1 [Example 76] | > 10 |
| CCOC(=O)c1cc2c(-c3ccccc3Cl)nc(N)nc2s1 [Example 9] | < 10 |
| CCOC(=O)c1cc2c(-c3ccc(OC)cc3)nc(N)nc2s1 [Example 12] | > 10 |
| Nc1nc(-c2ccccc2)c2cc(C(=O)NCCCc3ccccc3)sc2n1 [Example 50] | > 10 |
| CN(c1ccccc1)c1nc(N)nc2sc(C(N)=O)cc12 [Example 63] | > 10 |
| CCCCNC(=O)c1cc2c(-c3ccccc3)nc(N)nc2s1 [Example 48] | > 10 |

Second part, the compound after the results:

| IC50 [µM] | SMILES |
| --- | --- |
| < 10 | Nc1nc(-c2ccc(Cl)cc2Cl)c2cc(C(=O)NCc3ccc(Cl)cc3)sc2n1 [Example 121] |
| < 10 | CCNC(=O)c1cc2c(-c3ccc(CC)cc3Cl)nc(N)nc2s1 [Example 177] |
| < 10 | CCOC(=O)c1cc2c(-c3ccc(OCC(N)=O)cc3C)nc(N)nc2s1 [Example 191] |
| < 10 | CCOC(=O)c1cc2c(/C=C/c3cccc(C(F)(F)F)c3)nc(N)nc2s1 [Example 284] |
| < 10 | CCNC(=O)c1cc2c(-c3cc(CNCc4ccccc4)ccc3C)nc(N)nc2s1 [Example 200] |
| < 10 | CCOC(=O)c1cc2c(C(=O)c3ccc(OC)c(OC)c3)nc(N)nc2s1 [Example 310] |
| < 10 | Nc1nc(-c2ccc(Cl)cc2Cl)c2cc(C(=O)NCCc3ccccn3)sc2n1 [Example 156] |
| < 10 | Nc1nc(-c2ccc(Cl)cc2Cl)c2cc(C(=O)NC3CC3)sc2n1 [Example 155] |
| < 10 | CCNC(=O)c1cc2c(C(C)c3ccccc3)nc(N)nc2s1 (stereo not shown) [Example 287] |
| < 10 | CCOC(=O)c1cc2c(-c3ccc(Cl)cc3)nc(N)nc2s1 [Example 169] |
| < 10 | CCN(CC)CCOc1cc(-c2nc(N)nc3sc(C(=O)NC(CO)CO)cc23)c(Cl)cc1Cl [Example 266] |
| > 10 | CCC/C=C/c1nc(N)nc2sc(C(=O)OCC)cc12 [Example 292] |
| < 10 | CCOC(=O)c1cc2c(C(=O)c3ccc4c(c3)OCO4)nc(N)nc2s1 [Example 298] |
| < 10 | CCOC(=O)c1cc2c(C(=O)c3ccc4c(c3)OCCO4)nc(N)nc2s1 [Example 312] |
| < 10 | CCNC(=O)c1cc2c(-c3cc(CNCc4ccc(S(N)(=O)=O)cc4)ccc3C)nc(N)nc2s1 [Example 207] |
| < 10 | CCOC(=O)c1cc2c(-c3ccc(OCC#N)cc3C)nc(N)nc2s1 [Example 188] |
| < 10 | CCOC(=O)c1cc2c(C(=O)c3ccc(OC)c(F)c3)nc(N)nc2s1 [Example 314] |
| > 10 | CCNC(=O)c1cc2c(OCc3ccccc3)nc(N)nc2s1 [Example 294] |
| < 10 | CCNC(=O)c1cc2c(-c3cc(OCCn4ccnc4)c(Cl)cc3Cl)nc(N)nc2s1 [Example 263] |
| < 10 | Nc1nc(-c2ccc(Cl)cc2Cl)c2cc(C(=O)Nc3ccc(F)cc3)sc2n1 [Example 135] |
| < 10 | CCOC(=O)c1cc2c(C(=O)c3ccccc3Cl)nc(N)nc2s1 [Example 302] |
| < 10 | C=CCc1ccc(-c2nc(N)nc3sc(C(=O)NCC)cc23)c(C)c1 [Example 176] |
